Measured values published in PubChem BioAssay AID588372 (Southern Research Specialized Biocontainment Screening …, 2011).
Values joined by “and” are separate entries in the source; they are usually repeats but may differ in a detail not shown here. Equal entries are not always repeated. Records with an inconclusive call do not appear. Active and inactive are the calls of the source. How the calls were made is not given here.

Columns and labels:
[1] = antiviral activity against West Nile virus in cells, dose response, cell-based, EC_2 (AID 588372); settings: West Nile virus infected cells, antiviral inhibition
[2] = test system: West Nile virus infected cells, antiviral inhibition; assay: as above

SMILES | inhibition ([1]; at 100 µM (top of the series)) | further results
O=C(CCCCSc1nc2ccccc2c(=O)n1-c1ccc(F)c(Cl)c1)Nc1ccc2c(c1)CCC2 | 0.07% (inactive) | 
O=C(CSc1nc2ccccc2c(=O)n1-c1cc(F)c(F)c(F)c1)NC1CCCc2ccccc21 (configuration not stated) |  | inhibition ([1]; at 50 µM (top of the series)): -0.6% (inactive)
Cc1csc(NC(=O)CSc2nc3ccccc3c(=O)n2-c2ccc(Cl)c(Cl)c2)n1 | -0.04% (inactive) | 
O=C(CSc1nc2ccccc2c(=O)n1-c1ccc(F)c(Cl)c1)Nc1ccc2c(c1)OCO2 | -0.94% (inactive) | 
O=C(CCSc1nc2ccccc2c(=O)n1-c1cc(Cl)cc(Cl)c1)Nc1ccc2c(c1)CCC2 | 1.02% (inactive) | 
O=C(CSc1nc2ccccc2c(=O)n1-c1ccc(F)c(Cl)c1)Nc1cccc2c1CCC2 | -0.11% (inactive) | 
O=C(CSc1nc2ccccc2c(=O)n1-c1ccc(F)c(Cl)c1)NC1Cc2ccccc2C1 | -1.39% (inactive) | 
O=C(CSc1nc2ccccc2c(=O)n1-c1ccc(Cl)c(Cl)c1)Nc1ccc2scnc2c1 | 0.04% (inactive) | 
O=C(CSc1nc2ccccc2c(=O)n1-c1ccc(Cl)c(Cl)c1)Nc1cccc(-c2ccccc2)c1 | -1.24% (inactive) | 
O=C(CCCCSc1nc2ccccc2c(=O)n1-c1ccc(F)c(F)c1)Nc1ccc2c(c1)CCC2 | 0.53% (inactive) | 
O=C(CSc1nc2ccccc2c(=O)n1-c1cc(F)c(F)c(F)c1)Nc1ccc2c(c1)CCC2 |  | IC50 [2]: 5.27 µM
O=C(CSc1nc2ccccc2c(=O)n1-c1ccc(Cl)c(Cl)c1)NC1CCCc2ccccc21 (configuration not stated) |  | inhibition ([1]; at 50 µM (top of the series)): 1.77% (inactive)
O=C(CSc1nc2ccccc2c(=O)n1-c1cc(Cl)cc(Cl)c1)Nc1cccc2c1CCC2 |  | inhibition ([1]; at 50 µM (top of the series)): 1.26% (inactive)
O=C(CSc1nc2ccccc2c(=O)n1-c1cc(F)c(F)c(F)c1)NC1Cc2ccccc2C1 |  | inhibition ([1]; at 50 µM (top of the series)): 0.07% (inactive)
O=C(CCSc1nc2ccccc2c(=O)n1-c1ccc(F)c(Cl)c1)Nc1ccc2c(c1)CCC2 | -1.01% (inactive) | 
O=C(CSc1nc2ccccc2c(=O)n1-c1ccc(F)c(F)c1)Nc1ccc2c(c1)CCC2 |  | IC50 [2]: 5.72 µM
O=C(CSc1nc2ccccc2c(=O)n1-c1cc(F)c(F)c(F)c1)Nc1cccc2ccccc12 | -1.52% (inactive) | 
O=C(CSc1nc2ccccc2c(=O)n1-c1ccc(F)c(F)c1)NC1Cc2ccccc2C1 | -0.73% (inactive) | 
O=C(CSc1nc2ccccc2c(=O)n1-c1ccc(F)c(Cl)c1)Nc1cccc2ccccc12 | -0.86% (inactive) | 
O=C(CSc1nc2ccccc2c(=O)n1-c1ccc(Cl)c(Cl)c1)NC1Cc2ccccc2C1 |  | inhibition ([1]; at 50 µM (top of the series)): -0.66% (inactive)
O=C(CSc1nc2ccccc2c(=O)n1-c1ccc(F)c(F)c1)Nc1cccc2c1CCC2 | 0% (inactive) | 
O=C(CSc1nc2ccccc2c(=O)n1-c1ccc(F)c(F)c1)Nc1cccc2ccccc12 | -1.02% (inactive) | 
Cc1cnc(NC(=O)CSc2nc3ccccc3c(=O)n2-c2ccc(Cl)c(Cl)c2)s1 | -0.85% (inactive) | 
O=C(CSc1nc2ccccc2c(=O)n1-c1ccc(F)c(F)c1)Nc1nccs1 |  | inhibition ([1]; at 50 µM (top of the series)): 0% (inactive)
O=C(CCCCSc1nc2ccccc2c(=O)n1-c1cc(Cl)cc(Cl)c1)Nc1ccc2c(c1)CCC2 | 0.66% (inactive) | 
Cc1nc2cc(NC(=O)CSc3nc4ccccc4c(=O)n3-c3ccc(Cl)c(Cl)c3)ccc2s1 |  | inhibition ([1]; at 50 µM (top of the series)): 0.29% (inactive)

SMILES | inhibition ([1]; at 100 µM (top of the series)) | further results
O=C(CSc1nc2ccccc2c(=O)n1-c1ccc(Cl)c(Cl)c1)N1CCCCCC1 | 1.13% (inactive) | 
O=C(CSc1nc2ccccc2c(=O)n1-c1ccc(F)c(F)c1)NC1CCCc2ccccc21 (configuration not stated) | -0.29% (inactive) | 
O=C(CSc1nc2ccccc2c(=O)n1-c1cc(F)c(F)c(F)c1)Nc1ccc2c(c1)OCO2 | 3.29% (inactive) | 
O=C(CCCCSc1nc2ccccc2c(=O)n1-c1cc(F)c(F)c(F)c1)Nc1ccc2c(c1)CCC2 | 11.5% (inactive) | 
O=C(CSc1nc2ccccc2c(=O)n1-c1ccc(Cl)c(Cl)c1)Nc1nc(-c2ccccc2)cs1 | 0.46% (inactive) | 
O=C(COc1nc2ccccc2c(=O)n1-c1ccccc1)Nc1ccc2c(c1)CCC2 | 5.92% (inactive) | 
O=C(CSc1nc2ccccc2c(=O)n1-c1ccc(Cl)c(Cl)c1)Nc1ncc([N+](=O)[O-])s1 | 0.32% (inactive) | 
O=C(CSc1nc2ccccc2c(=O)n1-c1ccccc1)Nc1ccc2c(c1)CCC2 |  | IC50 [2]: 6.51 µM and 33.3 µM
O=C(CSc1nc2ccccc2c(=O)n1-c1ccc(F)c(F)c1)Nc1ccc2c(c1)OCO2 | -1.66% (inactive) | 
O=C(CSc1nc2ccccc2c(=O)n1-c1ccc(F)c(Cl)c1)NC1CCCc2ccccc21 (configuration not stated) | -0.04% (inactive) | 
O=C(CCCSc1nc2ccccc2c(=O)n1-c1ccc(Cl)c(Cl)c1)Nc1ccc2c(c1)CCC2 | -0.7% (inactive) | 
O=C(CSc1nc2ccccc2c(=O)n1-c1cc(Cl)cc(Cl)c1)NC1CCCc2ccccc21 (configuration not stated) |  | inhibition ([1]; at 50 µM (top of the series)): 1.62% (inactive)
Cn1c(NC(=O)CSc2nc3ccccc3c(=O)n2-c2ccc(Cl)c(Cl)c2)nc2ccccc21 |  | inhibition ([1]; at 50 µM (top of the series)): -1.28% (inactive)
O=C(CSc1nc2ccccc2c(=O)n1-c1ccc(F)c(Cl)c1)Nc1ccc2c(c1)CCC2 |  | IC50 [2]: 9.05 µM
Cn1c(NC(=O)CSc2nc3ccccc3c(=O)n2-c2ccccc2)nc2ccccc21 |  | inhibition ([1]; at 25 µM (top of the series)): -2.29% (inactive)
O=C(CSc1nc2ccccc2c(=O)n1-c1ccc(Cl)c(Cl)c1)NC1CCc2ccccc21 (configuration not stated) |  | inhibition ([1]; at 50 µM (top of the series)): 5.24% (inactive)
O=C(CSc1nc2ccccc2c(=O)n1-c1cc(Cl)cc(Cl)c1)Nc1ccc2c(c1)CCC2 |  | IC50 [2]: 2.1 µM
O=C(CSc1nc2ccccc2c(=O)n1-c1ccc(Cl)c(Cl)c1)Nc1nc2ccc([N+](=O)[O-])cc2s1 |  | inhibition ([1]; at 50 µM (top of the series)): -1.43% (inactive)
O=C(CSc1nc2ccccc2c(=O)n1-c1ccc(F)c(Cl)c1)NC1CCc2ccccc21 (configuration not stated) | 1.01% (inactive) | 
O=C(CSc1nc2ccccc2c(=O)n1-c1cc(F)c(F)c(F)c1)Nc1nccs1 | 6.14% (inactive) | 
O=C(CSc1nc2ccccc2c(=O)n1-c1cc(Cl)cc(Cl)c1)Nc1ccc2c(c1)OCO2 |  | inhibition ([1]; at 50 µM (top of the series)): -2.43% (inactive)
O=C(CCSc1nc2ccccc2c(=O)n1-c1ccc(F)c(F)c1)Nc1ccc2c(c1)CCC2 | -1.31% (inactive) | 
O=C(CSc1nc2ccccc2c(=O)n1-c1ccc(Cl)c(Cl)c1)Nc1nc2cc(Cl)ccc2o1 | 6.36% (inactive) | 
O=C(CSc1nc2ccccc2c(=O)n1-c1cc(F)c(F)c(F)c1)Nc1cccc2c1CCC2 |  | inhibition ([1]; at 50 µM (top of the series)): 5.49% (inactive)
O=C(CSc1nc2ccccc2c(=O)n1-c1ccc(F)c(Cl)c1)Nc1nccs1 | 7.09% (inactive) | 
O=C(CCCCSc1nc2ccccc2c(=O)n1-c1ccc(Cl)c(Cl)c1)Nc1ccc2c(c1)CCC2 | 3.07% (inactive) | 
